Values of other authors in patent publication US9938200B2, “Methods for improving bud break” (priority 2010, dated 2018).

Tested on: vines
Details: use over time

N#CN [hydrogen cyanamide]
lowering of the fruitability of vines: 20-30 % per year
